The results in this text go back to ChEMBL document CHEMBL4392841, “Identification of ortho-hydroxy anilide as a novel scaffold for lysine demethylase 5 inhibitors” (Bioorg Med Chem Lett, 2019).

One may read the IC50 as the midpoint of a concentration-inhibition curve. A higher IC50 goes with lower potency. For orientation: inhibition means the percentage by which the read-out fell short of the control.

Each structure is given as a SMILES string. Active and inactive are the calls of the source. No cut-off for these calls is given here.

For assay [1], the target named is T1, Lysine-specific demethylase 5A (Homo sapiens, UniProt P29375). In words: Inhibition of C-terminal FLAG-tagged human KDM5A expressed in Sf9 cells pre-incubated for 4 hrs before substrate addition and measured after 1 hr by AlphaScreen assay. In general terms: Alpha assays give light when donor and acceptor beads are brought close together.
T1 sequence (P29375 whole entry): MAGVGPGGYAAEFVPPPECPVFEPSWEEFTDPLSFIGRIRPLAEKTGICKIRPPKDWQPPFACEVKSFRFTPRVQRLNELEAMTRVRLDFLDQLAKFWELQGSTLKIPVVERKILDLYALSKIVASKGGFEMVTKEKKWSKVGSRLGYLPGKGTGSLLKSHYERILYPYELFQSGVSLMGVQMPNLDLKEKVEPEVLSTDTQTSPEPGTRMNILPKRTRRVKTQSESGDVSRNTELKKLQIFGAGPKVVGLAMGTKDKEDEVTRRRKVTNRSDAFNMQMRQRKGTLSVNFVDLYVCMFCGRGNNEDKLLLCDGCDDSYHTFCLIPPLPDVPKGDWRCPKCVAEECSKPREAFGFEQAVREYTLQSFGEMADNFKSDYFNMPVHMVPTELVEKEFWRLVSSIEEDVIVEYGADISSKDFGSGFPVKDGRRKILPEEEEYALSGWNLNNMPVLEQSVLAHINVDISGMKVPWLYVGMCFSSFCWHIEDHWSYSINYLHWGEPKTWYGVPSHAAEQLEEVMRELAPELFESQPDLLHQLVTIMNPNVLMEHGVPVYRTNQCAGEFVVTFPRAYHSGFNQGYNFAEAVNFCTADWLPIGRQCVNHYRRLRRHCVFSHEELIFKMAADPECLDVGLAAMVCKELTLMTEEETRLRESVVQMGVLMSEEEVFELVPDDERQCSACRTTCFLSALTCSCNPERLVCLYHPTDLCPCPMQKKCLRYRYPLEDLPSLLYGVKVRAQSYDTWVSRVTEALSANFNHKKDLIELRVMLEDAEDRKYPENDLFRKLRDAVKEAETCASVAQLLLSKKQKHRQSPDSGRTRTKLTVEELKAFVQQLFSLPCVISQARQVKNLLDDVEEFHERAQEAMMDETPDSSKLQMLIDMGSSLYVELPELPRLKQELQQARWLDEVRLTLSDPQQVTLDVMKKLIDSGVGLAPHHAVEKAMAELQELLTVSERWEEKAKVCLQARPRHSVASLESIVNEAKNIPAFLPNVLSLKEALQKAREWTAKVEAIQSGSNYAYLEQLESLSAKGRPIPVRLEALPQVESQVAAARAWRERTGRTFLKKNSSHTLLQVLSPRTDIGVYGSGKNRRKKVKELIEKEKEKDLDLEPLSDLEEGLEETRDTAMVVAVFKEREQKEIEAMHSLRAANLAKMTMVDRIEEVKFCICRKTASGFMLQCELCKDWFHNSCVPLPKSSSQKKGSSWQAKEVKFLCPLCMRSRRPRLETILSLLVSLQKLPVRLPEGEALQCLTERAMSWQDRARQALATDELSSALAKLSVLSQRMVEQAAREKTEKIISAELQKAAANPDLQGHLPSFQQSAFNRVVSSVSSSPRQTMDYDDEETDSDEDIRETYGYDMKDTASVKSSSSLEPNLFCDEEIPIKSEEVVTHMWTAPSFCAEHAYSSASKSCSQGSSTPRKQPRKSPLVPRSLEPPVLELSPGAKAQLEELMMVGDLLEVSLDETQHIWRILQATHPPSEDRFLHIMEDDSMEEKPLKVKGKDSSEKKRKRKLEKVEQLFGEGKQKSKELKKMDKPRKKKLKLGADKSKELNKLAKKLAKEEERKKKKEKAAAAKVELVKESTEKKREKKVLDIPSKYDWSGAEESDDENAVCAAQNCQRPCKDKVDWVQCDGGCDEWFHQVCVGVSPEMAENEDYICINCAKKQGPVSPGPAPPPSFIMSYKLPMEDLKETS
The target of assay [2] is T1, Lysine-specific demethylase 5A. Briefly: Inhibition of C-terminal FLAG-tagged human KDM5A expressed in Sf9 cells at 50 uM pre-incubated for 4 hrs before substrate addition and measured after 1 hr by AlphaScreen assay.
Assay [3] has as its target Histone deacetylase 1 (Homo sapiens) (UniProt Q13547). In words: Inhibition of C-terminal GST-tagged full-length human HDAC1 expressed in Sf9 cells at 100 uM pre-incubated for 10 mins before substrate addition and measured after 20 mins by fluorescence assay.
Assay [4] concerns the target T2, Lysine-specific demethylase 4A (Homo sapiens) (UniProt O75164).
T2 sequence (whole entry): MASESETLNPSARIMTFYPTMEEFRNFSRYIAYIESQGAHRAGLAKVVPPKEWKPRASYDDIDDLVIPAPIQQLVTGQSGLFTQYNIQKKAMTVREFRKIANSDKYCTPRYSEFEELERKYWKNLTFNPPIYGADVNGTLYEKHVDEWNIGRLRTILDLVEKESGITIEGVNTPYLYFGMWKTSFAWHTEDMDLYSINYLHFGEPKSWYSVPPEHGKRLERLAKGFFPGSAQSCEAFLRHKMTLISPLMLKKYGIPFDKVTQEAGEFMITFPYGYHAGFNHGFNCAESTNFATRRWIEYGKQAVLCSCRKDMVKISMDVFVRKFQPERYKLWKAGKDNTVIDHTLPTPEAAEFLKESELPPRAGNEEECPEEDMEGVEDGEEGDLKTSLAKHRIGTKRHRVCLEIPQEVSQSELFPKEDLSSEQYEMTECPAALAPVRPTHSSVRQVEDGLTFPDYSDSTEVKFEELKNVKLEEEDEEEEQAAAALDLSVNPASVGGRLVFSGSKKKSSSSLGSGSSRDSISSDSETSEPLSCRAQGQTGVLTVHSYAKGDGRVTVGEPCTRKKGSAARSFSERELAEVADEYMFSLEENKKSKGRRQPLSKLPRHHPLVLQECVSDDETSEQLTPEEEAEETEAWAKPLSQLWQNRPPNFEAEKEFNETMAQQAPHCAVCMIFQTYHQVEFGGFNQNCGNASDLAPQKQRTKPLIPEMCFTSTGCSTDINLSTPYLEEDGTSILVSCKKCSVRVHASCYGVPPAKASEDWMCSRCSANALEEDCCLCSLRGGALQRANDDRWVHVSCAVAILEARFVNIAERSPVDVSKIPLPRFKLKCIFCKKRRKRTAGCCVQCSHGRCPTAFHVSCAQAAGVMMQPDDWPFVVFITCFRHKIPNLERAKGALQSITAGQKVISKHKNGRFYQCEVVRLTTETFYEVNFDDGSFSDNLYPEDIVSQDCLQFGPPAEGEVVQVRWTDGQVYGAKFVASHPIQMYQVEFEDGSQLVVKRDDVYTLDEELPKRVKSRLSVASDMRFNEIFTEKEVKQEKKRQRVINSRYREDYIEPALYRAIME
In words: Inhibition of C-terminal FLAG-tagged human KDM4A expressed in Escherichia coli at 50 uM pre-incubated for 4 hrs before substrate addition and measured after 1 hr by AlphaScreen assay.

Assay [5] addresses T1, Lysine-specific demethylase 5A. In words: Inhibition of KDM5A in human A549 cells assessed as H3K4me3/H3 ratio level at 250 uM levels incubated for 24 hrs by Western blot analysis relative to control. The assay is classed as cell-based. In general terms: Immunoblotting shows a protein as a band on a membrane.
The target is the same in assay [6]. In words: Inhibition of C-terminal FLAG-tagged human KDM5A expressed in Sf9 cells at 200 uM pre-incubated for 15 mins before H3(1-21)K4me3 peptide substrate addition in presence of 1000 uM alpha-KG by formaldehyde dehydrogenase coupled demethylase assay.
The target is the same in assay [7]. Briefly: Inhibition of C-terminal FLAG-tagged human KDM5A expressed in Sf9 cells at 200 uM pre-incubated for 15 mins before H3(1-21)K4me3 peptide substrate addition in presence of 50 uM alpha-KG by formaldehyde dehydrogenase coupled demethylase assay.
Assay [8] deals with Lysine-specific demethylase 6B (Homo sapiens) (UniProt O15054). Briefly: Inhibition of C-terminal FLAG-tagged human KDM6B expressed in expressed in Sf9 cells at 50 uM pre-incubated for 4 hrs before substrate addition and measured after 1 hr by AlphaScreen assay.
Sequence of Lysine-specific demethylase 6B (Homo sapiens) (O15054 whole entry): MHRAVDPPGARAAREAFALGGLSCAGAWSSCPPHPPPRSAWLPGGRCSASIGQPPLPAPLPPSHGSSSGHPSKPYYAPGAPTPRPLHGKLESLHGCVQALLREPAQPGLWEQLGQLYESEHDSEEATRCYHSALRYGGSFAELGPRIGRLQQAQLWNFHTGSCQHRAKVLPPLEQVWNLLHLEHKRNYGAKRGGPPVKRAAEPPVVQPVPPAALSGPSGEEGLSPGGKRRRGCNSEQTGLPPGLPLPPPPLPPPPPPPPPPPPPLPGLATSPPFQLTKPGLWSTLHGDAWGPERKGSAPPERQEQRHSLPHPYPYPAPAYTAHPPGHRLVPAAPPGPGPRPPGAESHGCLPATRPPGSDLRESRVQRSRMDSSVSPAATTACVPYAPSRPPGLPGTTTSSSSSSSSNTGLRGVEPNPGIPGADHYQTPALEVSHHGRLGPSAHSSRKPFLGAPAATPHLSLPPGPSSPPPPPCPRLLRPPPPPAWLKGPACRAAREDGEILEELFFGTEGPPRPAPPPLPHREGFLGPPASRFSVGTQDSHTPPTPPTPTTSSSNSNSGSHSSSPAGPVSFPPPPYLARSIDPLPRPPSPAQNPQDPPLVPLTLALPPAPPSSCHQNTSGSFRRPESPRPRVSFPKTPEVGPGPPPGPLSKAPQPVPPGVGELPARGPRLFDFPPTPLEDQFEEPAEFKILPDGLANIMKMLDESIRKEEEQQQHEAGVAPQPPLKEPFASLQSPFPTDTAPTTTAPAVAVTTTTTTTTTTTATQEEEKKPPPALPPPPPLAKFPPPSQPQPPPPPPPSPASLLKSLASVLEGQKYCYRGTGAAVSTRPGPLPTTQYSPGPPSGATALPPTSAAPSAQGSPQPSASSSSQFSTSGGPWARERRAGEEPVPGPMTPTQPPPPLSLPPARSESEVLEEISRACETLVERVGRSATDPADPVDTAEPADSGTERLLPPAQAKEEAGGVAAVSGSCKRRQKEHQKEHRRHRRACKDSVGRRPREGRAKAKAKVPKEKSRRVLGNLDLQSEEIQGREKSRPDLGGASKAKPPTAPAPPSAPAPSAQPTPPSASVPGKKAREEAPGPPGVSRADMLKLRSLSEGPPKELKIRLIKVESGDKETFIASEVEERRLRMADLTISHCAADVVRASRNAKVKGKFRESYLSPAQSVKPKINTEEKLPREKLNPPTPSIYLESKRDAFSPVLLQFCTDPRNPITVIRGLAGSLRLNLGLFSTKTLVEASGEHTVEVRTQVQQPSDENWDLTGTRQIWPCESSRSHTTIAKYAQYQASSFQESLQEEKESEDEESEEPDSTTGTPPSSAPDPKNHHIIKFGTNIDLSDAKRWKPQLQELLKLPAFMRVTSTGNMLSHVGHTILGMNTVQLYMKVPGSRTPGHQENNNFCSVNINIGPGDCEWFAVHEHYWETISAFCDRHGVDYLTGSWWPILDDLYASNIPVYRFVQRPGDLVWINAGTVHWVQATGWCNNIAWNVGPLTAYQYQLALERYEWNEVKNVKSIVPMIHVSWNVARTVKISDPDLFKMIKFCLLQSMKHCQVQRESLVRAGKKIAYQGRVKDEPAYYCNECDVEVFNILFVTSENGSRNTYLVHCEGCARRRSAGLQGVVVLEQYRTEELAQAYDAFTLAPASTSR
Assay [9] deals with A549. In words: Cytotoxicity in human A549 cells assessed as reduction in cell viability at 250 uM. Type of assay: functional, cell-based.
Assay [10] addresses T1, Lysine-specific demethylase 5A. In words: Inhibition of KDM5A in human A549 cells assessed as H3K4me3/H3 ratio level at 100 uM levels incubated for 24 hrs by Western blot analysis relative to control. The assay is classed as cell-based.
Assay [11] shares this target. In words: Inhibition of KDM5A in human A549 cells assessed as H3K4me3/H3 ratio level at 50 uM levels incubated for 24 hrs by Western blot analysis relative to control. The assay is classed as cell-based.
Assay [12] deals with T3, Lysine-specific demethylase 4A (Homo sapiens, UniProt O75164).
T3 sequence (O75164 whole entry): T2 sequence (whole entry)
Briefly: Inhibition of C-terminal FLAG-tagged human KDM4A expressed in Escherichia coli pre-incubated for 4 hrs before substrate addition and measured after 1 hr by AlphaScreen assay.

Assay [13] deals with T1, Lysine-specific demethylase 5A. Briefly: Inhibition of KDM5A in human A549 cells assessed as increase in H3K4me3/H3 ratio level at 50 to 250 uM levels incubated for 24 hrs by Western blot analysis relative to control. Type of assay: cell-based.
Assay [14] shares this target. In words: Inhibition of KDM5A in human A549 cells assessed as increase in H3K4me3/H3 levels incubated for 24 hrs by Western blot analysis. Type of assay: cell-based.

Sequence of Histone deacetylase 1 (Homo sapiens) (Q13547 whole entry): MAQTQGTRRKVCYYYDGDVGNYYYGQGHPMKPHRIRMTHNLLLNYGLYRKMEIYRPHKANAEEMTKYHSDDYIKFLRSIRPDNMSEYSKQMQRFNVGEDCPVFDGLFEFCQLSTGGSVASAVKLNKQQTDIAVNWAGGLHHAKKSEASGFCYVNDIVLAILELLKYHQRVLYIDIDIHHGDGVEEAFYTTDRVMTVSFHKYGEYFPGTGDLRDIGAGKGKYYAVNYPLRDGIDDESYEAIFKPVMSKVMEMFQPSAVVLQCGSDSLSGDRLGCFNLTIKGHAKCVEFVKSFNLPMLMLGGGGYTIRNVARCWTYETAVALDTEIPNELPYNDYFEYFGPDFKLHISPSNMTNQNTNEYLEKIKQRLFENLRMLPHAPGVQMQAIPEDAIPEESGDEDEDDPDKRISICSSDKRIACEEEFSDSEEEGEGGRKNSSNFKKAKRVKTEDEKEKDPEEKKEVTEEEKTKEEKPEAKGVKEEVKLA

In assay [1], `O=CNc1cc(C(=O)O)ccc1O` yielded an IC50 of 48 µM. The same compound yielded an inhibition in assay [2] of 73%.
In assay [1], `CCCCCN(C)CCCCC(=O)N(O)CCC(=O)O` returned an IC50 of 0.079 µM.
As to `CC(=O)Nc1ccc(C(=O)O)cc1O`, in [2], the inhibition result is “Active”.
With `CC(=O)Nc1cc(C(=O)O)ccc1O`, the inhibition result in assay [2] was “Active”.
Regarding `O=CNc1ccc(C(=O)O)cc1O`, the inhibition in assay [3] amounted to 6%; in assay [4], 20%; in assay [2] it was 87%; in assay [6], 44%; in [7], 97%; in [8], 38%. This compound gave an IC50 in assay [1] of 46 µM. The results for the Ratio in [5], in assay [10] and in assay [11] were 0.96, 1.01 and 0.93, respectively. In addition, the outcome in assay [9] was inactive.
For the compound `O=C(O)CNC(=O)C(=O)O` [N-OXALYLGLYCINE], in [12], the IC50 amounted to 85 µM.
`CC(=O)Nc1ccc(C(=O)O)cc1N`: the inhibition result in assay [2] was “inactive”.
Turning to `COC(=O)c1ccc(NC=O)c(O)c1`, the fold change (FC) in assay [13] was in the range of 1.7 to 2.2. Moreover, the inhibition entry in [14] was “Dose-dependent effect”. Also, the values for the Ratio in [5], in [10] and in assay [11] were 2.15, 1.72 and 1.31, respectively. The result in assay [9] was inactive.
